What was measured:
[1] = test system: soybean rust fungus (Phakopsora pachyrhizi); assay: Test Example 1: curative foliar spray against soybean rust on potted soybean; assay type: in vivo; conditions: for Efficacy (%): 2 ppm foliar spray on soybean (cv; Kurosengoku) 4 days after inoculation, lesion area 7 days after spraying vs untreated group
Protocol: Each of 5 parts of the Ra1 type crystal form, or the Ra4 type crystal form as comparison control, 35 parts of a mixture of white carbon and ammonium polyoxyethylene alkyl ether sulfate (weight ratio is 1:1) and 60 parts of water were mixed, and the mixture was then finely-ground by a wet grinding method to obtain a formulation. Water was then added to the formulation so as to be 2 ppm as the concentration of the Ra1 type crystal form or the Ra4 type crystal form to obtain dilutions respectively.
Each of plastic pots was filled with soil and thereto soybean (cv; Kurosengoku) seeds were sown and the soybeans were grown in a greenhouse for 15 days. Thereafter, an aqueous suspension of spores of soybean rust fungus (Phakopsora pachyrhizi) was spraying-inoculated. After the inoculation, the soybeans were placed under a dark and wet condition at 23° C. for 1 night and were further cultivated in a greenhouse for 3 days, and the above-mentioned diluted dilutions were sprayed to foliar parts so as to adhere adequately on the leaves of the above-mentioned soybean. After spraying the dilutions, the plants were air-dried and were placed under a dark and wet condition at only night, and after 7 days of the spraying, the lesion area was observed (lesion area in treated group).
Whereas, in the untreated group, the similar procedures to those of the treated group except that the Ra1 type crystal form or the Ra4 type crystal form were not applied, were carried out and the lesion area of soybean rust disease in the untreated group was observed (lesion area in untreated group).
From each of the lesion area in the treated group or the untreated group respectively, the efficacy in the treated group was calculated by the following “Equation 1”. Efficacy (%)=[1−(lesion area in the treated group/lesion area in the untreated group)]×100 [Equation 1]

[2] = test system: blast fungus (Pyricularia oryzae); assay type: in vivo; conditions: for Efficacy (%): 50 ppm foliar spray on rice (cv; Hinohikari), 8 days outdoor, then 11 days in contact with infected rice plants, lesion area vs untreated group; for Efficacy compared to the Ra4 type crystal form: rice blast, 50 ppm

| SMILES | Efficacy (%) [1] [%] | Efficacy compared to the Ra4 type crystal form ([1]; soybean rust, 2 ppm) | Efficacy (%) [2] [%] | Efficacy compared to the Ra4 type crystal form [2] |
| --- | --- | --- | --- | --- |
| CC1CC(C)(C)c2cccc(NC(=O)c3cn(C)nc3C(F)F)c21 (racemic) [Ra1 type crystal form, 3-(difluoromethyl)-1-methyl-N-(1,1,3-trimethyl-2,3-dihydro-1H-inden-4-yl)-1H-pyrazole-4-carboxamide] | 72 | higher efficacy compared to the Ra4 type crystal form | – | – |
| CC1CC(C)(C)c2cccc(NC(=O)c3cn(C)nc3C(F)F)c21 (racemic) [Ra2 type crystal form, 3-(difluoromethyl)-1-methyl-N-(1,1,3-trimethyl-2,3-dihydro-1H-inden-4-yl)-1H-pyrazole-4-carboxamide] | – | – | 85 | higher efficacy compared to the Ra4 type crystal form |
| CC1CC(C)(C)c2cccc(NC(=O)c3cn(C)nc3C(F)F)c21 (racemic) [Ra3 type crystal form, 3-(difluoromethyl)-1-methyl-N-(1,1,3-trimethyl-2,3-dihydro-1H-inden-4-yl)-1H-pyrazole-4-carboxamide] | – | – | 75 | higher efficacy compared to the Ra4 type crystal form |
| CC1CC(C)(C)c2cccc(NC(=O)c3cn(C)nc3C(F)F)c21 (racemic) [Ra4 type crystal form, 3-(difluoromethyl)-1-methyl-N-(1,1,3-trimethyl-2,3-dihydro-1H-inden-4-yl)-1H-pyrazole-4-carboxamide, reference compound] | 54 | – | 50 | – |

Source: patent US12391652B2 (priority 2019, dated 2025)
